Results as given in PubChem BioAssay (NCI).
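Abbreviation: GI50, concentration required for 50% inhibition of growth. TGI denotes the concentration required for complete inhibition of growth.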

Experiments:
Assay in all cases: NCI tumour cell line growth inhibition, 384-well format
786-0 renal = tested on: 786-0 renal
A498 renal = tested on: A498 renal
A549 NSCLC = tested on: A549 NSCLC
ACHN renal = tested on: ACHN renal
BT-549 breast = tested on: BT-549 breast
CAKI-1 renal = tested on: CAKI-1 renal
COLO 205 colon = tested on: COLO 205 colon
DU-145 prostate = tested on: DU-145 prostate
EKVX NSCLC = tested on: EKVX NSCLC
HCT-15 colon = tested on: HCT-15 colon
HL-60(TB) leukemia = tested on: HL-60(TB) leukemia
HOP-62 NSCLC = tested on: HOP-62 NSCLC
HS 578T breast = tested on: HS 578T breast
HT29 colon = tested on: HT29 colon
IGROV1 ovarian = tested on: IGROV1 ovarian
K-562 leukemia = tested on: K-562 leukemia
KM12 colon = tested on: KM12 colon
M14 melanoma = tested on: M14 melanoma
MALME-3M melanoma = tested on: MALME-3M melanoma
MCF7 breast = tested on: MCF7 breast
MDA-MB-231 breast = tested on: MDA-MB-231 breast
MDA-MB-435 melanoma = tested on: MDA-MB-435 melanoma
MDA-MB-468 breast = tested on: MDA-MB-468 breast
MOLT-4 leukemia = tested on: MOLT-4 leukemia
NCI-H226 lung = tested on: NCI-H226 lung
NCI-H23 lung = tested on: NCI-H23 lung
NCI-H322M lung = tested on: NCI-H322M lung
NCI-H460 NSCLC = tested on: NCI-H460 NSCLC
NCI-H522 lung = tested on: NCI-H522 lung
OVCAR-3 ovarian = tested on: OVCAR-3 ovarian
OVCAR-4 ovarian = tested on: OVCAR-4 ovarian
OVCAR-5 ovarian = tested on: OVCAR-5 ovarian
PC-3 prostate = tested on: PC-3 prostate
RXF 393 renal = tested on: RXF 393 renal
SF-268 CNS = tested on: SF-268 CNS
SF-295 CNS = tested on: SF-295 CNS
SF-539 CNS = tested on: SF-539 CNS
SK-MEL-2 melanoma = tested on: SK-MEL-2 melanoma
SK-MEL-28 melanoma = tested on: SK-MEL-28 melanoma
SK-MEL-5 melanoma = tested on: SK-MEL-5 melanoma
SK-OV-3 ovarian = tested on: SK-OV-3 ovarian
SN12C renal = tested on: SN12C renal
SNB-19 CNS = tested on: SNB-19 CNS
SNB-75 CNS = tested on: SNB-75 CNS
SR leukemia = tested on: SR leukemia
SW-620 colon = tested on: SW-620 colon
T-47D breast = tested on: T-47D breast
TK-10 renal = tested on: TK-10 renal
U251 glioblastoma = tested on: U251 glioblastoma
UACC-257 melanoma = tested on: UACC-257 melanoma
UACC-62 melanoma = tested on: UACC-62 melanoma
UO-31 renal = tested on: UO-31 renal

## Cc1cccc2nc3cccc(C(=O)NCCNCCNCCNC(=O)c4cccc5nc6cccc(C)c6nc45)c3nc12
786-0 renal
  GI50: < 0.01 µM
  TGI: 6.78 µM
A498 renal
  GI50: < 0.01 µM
  TGI: 2.23 µM
A549 NSCLC
  GI50: < 0.01 µM
  TGI: 1.51 µM
ACHN renal
  GI50: < 0.01 µM
  TGI: 1.96 µM
BT-549 breast
  GI50: 1.32 µM
  TGI: 2.78 µM
CAKI-1 renal
  GI50: < 0.01 µM
  TGI: 3.14 µM
COLO 205 colon
  GI50: < 0.01 µM
  TGI: 1.82 µM
DU-145 prostate
  GI50: < 0.01 µM
  TGI: 0.208 µM
EKVX NSCLC
  GI50: 1.23 µM
  TGI: 5.68 µM
HCT-15 colon
  GI50: 0.0212 µM
  TGI: > 100 µM
HL-60(TB) leukemia
  GI50: < 0.01 µM
  TGI: 0.154 µM
HOP-62 NSCLC
  GI50: < 0.01 µM
  TGI: 1.39 µM
HS 578T breast
  GI50: 0.0796 µM
  TGI: 0.265 µM
HT29 colon
  GI50: < 0.01 µM
  TGI: 0.234 µM
IGROV1 ovarian
  GI50: < 0.01 µM
  TGI: 47.7 µM
K-562 leukemia
  GI50: < 0.01 µM
  TGI: 1.27 µM
KM12 colon
  GI50: < 0.01 µM
  TGI: 0.109 µM
M14 melanoma
  GI50: < 0.01 µM
  TGI: 0.751 µM
MALME-3M melanoma
  GI50: 0.107 µM
  TGI: 1.9 µM
MCF7 breast
  GI50: < 0.01 µM
  TGI: 31.2 µM
MDA-MB-231 breast
  GI50: 0.0115 µM
  TGI: 0.628 µM
MDA-MB-435 melanoma
  GI50: 0.133 µM
  TGI: 1.9 µM
MDA-MB-468 breast
  GI50: < 0.01 µM
  TGI: 1.21 µM
MOLT-4 leukemia
  GI50: < 0.01 µM
NCI-H226 lung
  GI50: 0.124 µM
  TGI: 1.19 µM
NCI-H23 lung
  GI50: 0.179 µM
  TGI: 1.76 µM
NCI-H322M lung
  GI50: 0.139 µM
  TGI: 1.14 µM
NCI-H460 NSCLC
  GI50: < 0.01 µM
  TGI: 0.229 µM
NCI-H522 lung
  GI50: 0.101 µM
  TGI: 0.221 µM
OVCAR-3 ovarian
  GI50: < 0.01 µM
  TGI: 2.62 µM
OVCAR-4 ovarian
  GI50: 0.188 µM
  TGI: 2.02 µM
OVCAR-5 ovarian
  GI50: 0.0623 µM
  TGI: > 100 µM
PC-3 prostate
  GI50: 0.0171 µM
  TGI: 2.28 µM
RXF 393 renal
  GI50: < 0.01 µM
  TGI: 0.231 µM
SF-268 CNS
  GI50: 0.0757 µM
  TGI: 0.318 µM
SF-295 CNS
  GI50: < 0.01 µM
  TGI: 3.08 µM
SF-539 CNS
  GI50: < 0.01 µM
  TGI: 0.454 µM
SK-MEL-2 melanoma
  GI50: 0.0713 µM
  TGI: 0.209 µM
SK-MEL-28 melanoma
  GI50: 0.51 µM
  TGI: 2.14 µM
SK-MEL-5 melanoma
  GI50: < 0.01 µM
  TGI: 1.21 µM
SK-OV-3 ovarian
  GI50: 0.0289 µM
  TGI: 3.75 µM
SN12C renal
  GI50: 0.109 µM
  TGI: 0.3 µM
SNB-19 CNS
  GI50: 0.245 µM
  TGI: > 100 µM
SNB-75 CNS
  GI50: 0.127 µM
  TGI: 0.316 µM
SR leukemia
  GI50: < 0.01 µM
SW-620 colon
  GI50: < 0.01 µM
  TGI: 1.71 µM
T-47D breast
  GI50: 0.564 µM
  TGI: 5.31 µM
TK-10 renal
  GI50: < 0.01 µM
  TGI: 6.44 µM
U251 glioblastoma
  GI50: < 0.01 µM
  TGI: 1.78 µM
UACC-257 melanoma
  GI50: 1.45 µM
  TGI: 3.58 µM
UACC-62 melanoma
  GI50: < 0.01 µM
  TGI: 0.152 µM
UO-31 renal
  GI50: 0.047 µM
  TGI: 19.4 µM
